Article PMC13095444, “Discovery of RGS2-FBXO44 interaction inhibitors using a cell-based NanoBit assay” (Molecular Pharmacology, 2025)

How the values were obtained:
RGS2 protein levels = test: PathHunter ProLabel assay of RGS2 protein levels in HEK-293T-RGS2-PL cells; assay type: cell-based, Human; conditions: for RGS2 protein levels (PathHunter ProLabel): 100 μM compound overnight (16–18 hours)
Protocol: The PathHunter ProLabel assay was run as described previously ([Sjögren et al, 2012]; [Raveh et al, 2014]; [Sjögren et al, 2015]). Briefly, HEK-293T-RGS2-PL cells were plated at 10,000 cells per well in a white, tissue culture-treated 384-well plate (Perkin Elmer) in DMEM without phenol red (#21063; Gibco) and 0.1% BSA. The cells were allowed to attach for 4 hours, followed by treatment with DMSO, 10 μM MG-132, or 100 μM of compounds. Prior to the detection of RGS2 protein levels by the ProLabel assay, a fluorescent viability assay was performed in the same well, as described above. PathHunter ProLabel reagents (DiscoveRx) were prepared according to the manufacturer’s directions and added to the plate, followed by incubation at room temperature for 1 hour. Luminescence corresponding to RGS2-PL protein levels was detected using a Synergy Neo2 multimode plate reader.
Compounds that inhibit the interaction between RGS2 and FBXO44 would protect RGS2 from proteasomal degradation and result in increased RGS2 protein levels. We therefore next assayed our 20 hits for their ability to increase RGS2 protein levels. We first performed western blot analysis of HEK-293T cells transfected with RGS2-HA and FLAG-FBXO44 and treated overnight (16–18 hours) with 100 μM compound, using proteasome inhibitor MG-132 as a positive control (10 μM). […] Although somewhat disappointing, given the limited sensitivity of western blot, we opted to also test the compounds using an alternate assay paradigm. Specifically, we used the PathHunter ProLabel assay (DiscoveRx), an enzyme complementation assay in which a protein of interest is tagged with a 4 kDa part of β-galactosidase (ProLabel; PL). The chemiluminescent signal in the assay correlates with relative levels of the PL-tagged target protein. We previously developed a stable HEK-293T-RGS2-PL cell line that was used in several high-throughput screening campaigns ([Sjögren et al, 2012]; [Raveh et al, 2014]; [Sjögren et al, 2015]). The PathHunter ProLabel assay offers a more quantitative measurement of protein levels, with a larger dynamic range than a western blot. We treated HEK-293T-RGS2-PL cells overnight (16–18 hours) with 100 μM compound and used 10 μM MG-132 as a positive control.
As a further validation of the action of compound 10, we assessed whether the ability to increase RGS2 protein levels was dependent on FBXO44 using the PathHunter ProLabel assay. HEK-293T-RGS2-PL cells transfected with either nontargeting (NT) or FBXO44-targeting siRNA were treated overnight (16–18 hours) with vehicle or compound 10 (100 μM). […] Thus, compound 10 increases RGS2 protein levels through a mechanism that is dependent on FBXO44.

RGS2-FBXO44 interaction = molecular target: T1, RGS2-FBXO44 interaction (Homo sapiens, UniProt P41220); test: Coimmunoprecipitation of RGS2-HA and FLAG-FBXO44; assay type: cell-based; conditions: 100 μM; anti-HA IP, FLAG-FBXO44 normalized to input, vs DMSO
T1 construct: expressed in transfected cells
T1 sequence (P41220 1-211): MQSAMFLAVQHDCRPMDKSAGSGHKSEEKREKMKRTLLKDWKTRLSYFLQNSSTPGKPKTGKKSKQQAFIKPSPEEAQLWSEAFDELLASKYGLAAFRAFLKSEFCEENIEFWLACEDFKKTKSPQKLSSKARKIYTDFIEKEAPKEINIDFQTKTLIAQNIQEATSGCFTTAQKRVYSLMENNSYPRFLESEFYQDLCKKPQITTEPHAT
Protocol: The cells were harvested in RIPA buffer containing protease inhibitors. The cells were then lysed by incubating on ice with occasional vortexing for 30 minutes. The cell lysates were centrifuged at 9600 × g for 10 minutes, and the supernatants were precleared by incubating with 40 μL prewashed protein A agarose beads (Roche) for 1 hour with slow rotation at 4 °C. The samples were then centrifuged at 10,000 rpm for 1 minute, and the supernatant was used to determine total protein concentration with the Pierce BCA Protein Assay Kit (Thermo Scientific). In total, 500 μg of total protein was used for each reaction. The samples were incubated with 100 μM compound 10 for 30 minutes with rotation at 4 °C. An equal amount of DMSO was used as a vehicle. Additionally, 20 μL was removed from each sample (input); 3 μL of rabbit anti-HA antibody (H6908; Sigma Aldrich) and 40μL of protein A agarose beads (Roche) were added to each sample prior to incubation on rotator at 4 °C overnight. The samples were centrifuged at 9600 × g for 5 minutes at 4 °C, and the supernatant was removed. The samples were washed once with 1 mL RIPA buffer and then 3× with 1 mL PBS. Bound proteins were eluted by heating the samples at 95 °C in 30 μL of SDS sample buffer for 10 minutes. The samples were centrifuged at 10,000 rpm for 5 minutes at 4 °C, and the supernatants were subjected to SDS-PAGE and western blot analysis. […]

CCC1CCCCN1S(=O)(=O)c1cc(Br)ccc1OC (stereo not shown) [Compound 10]
RGS2 protein levels (PathHunter ProLabel) (RGS2 protein levels): significantly increased RGS2 protein levels | RGS2 protein levels (PathHunter ProLabel) (RGS2 protein levels; listed as compound 10): significantly increased | Ability to increase RGS2 protein levels after siRNA-mediated FBXO44 knockdown (PathHunter ProLabel) (RGS2 protein levels; 100 μM overnight, FBXO44-targeting vs nontargeting siRNA): diminished ability | Association between RGS2 and FBXO44 (co-IP) (RGS2-FBXO44 interaction): almost completely blocked
